Test results reported in the NIST ThermoML archive (doi:10.1016/j.tca.2007.01.009).
± gives the expanded uncertainty stated by the source.

Assay: wn = mass fraction of the nth substance listed
Conditions: 101 kPa, Crystal, Hot wire method

[Zn] [zinc] + [Sn]
thermal conductivity (323.15 K, w1 = 0.01): 78.49 ± 1.2 W/m/K | thermal conductivity (323.15 K, w1 = 0.089): 86.39 ± 1.3 W/m/K | thermal conductivity (373.1 K, w1 = 0.01): 73.59 ± 1.1 W/m/K | thermal conductivity (373.1 K, w1 = 0.089): 81.42 ± 1.2 W/m/K | thermal conductivity (423.15 K, w1 = 0.01): 66.89 ± 1 W/m/K | thermal conductivity (423.15 K, w1 = 0.089): 79.04 ± 1.2 W/m/K | thermal conductivity (463.15 K, w1 = 0.01): 71.08 ± 1.1 W/m/K | thermal conductivity (463.15 K, w1 = 0.089): 75.42 ± 1.1 W/m/K

[Pb] [lead] + [Cd]
thermal conductivity (323.15 K, w2 = 0.033): 38.36 ± 0.58 W/m/K | thermal conductivity (323.15 K, w2 = 0.174): 62.77 ± 0.94 W/m/K | thermal conductivity (323.15 K, w2 = 0.9975): 105.18 ± 1.6 W/m/K | thermal conductivity (373.15 K, w2 = 0.033): 35.94 ± 0.54 W/m/K | thermal conductivity (373.15 K, w2 = 0.174): 53.14 ± 0.8 W/m/K | thermal conductivity (373.15 K, w2 = 0.9975): 86.06 ± 1.3 W/m/K | thermal conductivity (423.15 K, w2 = 0.033): 30.79 ± 0.46 W/m/K | thermal conductivity (423.15 K, w2 = 0.174): 44.49 ± 0.67 W/m/K | thermal conductivity (423.15 K, w2 = 0.9975): 71.06 ± 1.1 W/m/K | thermal conductivity (473.15 K, w2 = 0.033): 30.37 ± 0.46 W/m/K | thermal conductivity (473.15 K, w2 = 0.174): 39.96 ± 0.6 W/m/K | thermal conductivity (473.15 K, w2 = 0.9975): 69.38 ± 1 W/m/K | thermal conductivity (513.15 K, w2 = 0.033): 27.68 ± 0.42 W/m/K | thermal conductivity (513.15 K, w2 = 0.174): 37.25 ± 0.56 W/m/K | thermal conductivity (513.15 K, w2 = 0.9975): 61.22 ± 0.92 W/m/K
